# Measured values from patent US5763444A, “Antidepressant 1-arylalkyl-4-(alkoxy pyridinyl)-and 4-(alkoxypyrimidinyl) piperazine derivatives” (Bristol-Myers Squibb Company, priority 1996, dated 1998).
# Structures can show the parent of a compound that is named as a salt.
# Target: T1, synaptosomal serotonin uptake (Rattus norvegicus, UniProt P31652)
# T1 construct: from tissue
# Experiment: inhibition of synaptosomal reuptake of tritiated serotonin (5-HT inhibition assay)
# Format: biochemical
# Parameters: key: *: Compounds designated with an asterisk are most preferred, based on abilities to inhibit synoptosomal serotonin uptake
# Conditions: among compounds with IC50 less than 100 nM
# Protocol: Determination of endogenous monoaminergic re-uptake inhibition values both for serotonin and norepinephrine was accomplished using test methods described by P. Skolnick, et al., Br. J. Pharmacology, (1985), 86, pp. 637-644; with only minor modifications. In vitro IC50 (nM) test values were determined for representative compounds of Formula I based on their inhibition of synaptosomal re-uptake of tritiated serotonin.
# Compounds of the invention were tested for their ability to inhibit serotonin reuptake. Determination of endogenous monoaminergic reuptake inhibition values for serotonin was accomplished using test methods described by P. Skolnick et al., Br. J. Pharmacology (1985), 86, pp. 637-644; with only minor modifications.
# In vitro IC50 (nM) test values were determined for representative compounds of Formula I based on their inhibition of synaptosomal reuptake of tritiated serotnin.
# T1 sequence (P31652 whole entry): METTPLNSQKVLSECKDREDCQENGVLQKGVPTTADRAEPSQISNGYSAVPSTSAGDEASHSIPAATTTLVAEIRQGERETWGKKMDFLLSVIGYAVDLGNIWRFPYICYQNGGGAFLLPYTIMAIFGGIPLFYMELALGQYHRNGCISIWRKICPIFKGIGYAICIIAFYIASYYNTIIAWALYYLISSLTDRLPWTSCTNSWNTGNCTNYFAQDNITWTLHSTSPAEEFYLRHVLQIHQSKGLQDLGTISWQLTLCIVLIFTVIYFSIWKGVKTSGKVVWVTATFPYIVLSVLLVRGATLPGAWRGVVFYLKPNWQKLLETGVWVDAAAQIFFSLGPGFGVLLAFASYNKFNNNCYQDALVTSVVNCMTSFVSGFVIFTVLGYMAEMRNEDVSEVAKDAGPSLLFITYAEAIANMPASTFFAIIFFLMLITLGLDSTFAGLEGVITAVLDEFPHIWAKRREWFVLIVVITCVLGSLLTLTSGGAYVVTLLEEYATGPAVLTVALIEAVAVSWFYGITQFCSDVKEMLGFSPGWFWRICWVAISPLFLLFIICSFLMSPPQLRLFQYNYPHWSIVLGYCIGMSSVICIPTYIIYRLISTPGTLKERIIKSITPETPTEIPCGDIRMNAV
row,Compound,"asterisk designation: most preferred, based on ability to inhibit synaptosomal serotonin uptake"
1,"COc1cccnc1N1CCN(CCC2CSc3ccccc32)C(C)C1.Cl (stereo not shown) [Example 6, 1-[2-(2,3-dihydro-benzo[b]thien-3-yl)ethyl]-4-(3-methoxy-2-pyridinyl)-2-methylpiperazine hydrochloride]",*
2,"COc1cccnc1N1CCN(CCCC2CSc3ccccc32)C(C)C1 (stereo not shown) [Example 7, hydrochloride]",*
3,"COc1cccnc1N1CCN(CCC2CSc3ccccc32)CC1.Cl (stereo not shown) [Example 17, 1-[2-(2,3-dihydro-benzo[b]thien-3-yl)ethyl]-4-(3-methoxy-2-pyridinyl)piperazine hydrochloride]",*
4,"COc1cccnc1N1CCN(CCCc2coc3ccc(F)cc23)CC1.Cl [Example 20, 1-[3-(5-fluorobenzo[b]furan-3-yl)propyl]-4-(3-methoxy-2-pyridinyl)piperazine hydrochloride]",*
5,"COc1cccnc1N1CCN(CCCc2coc3ccc(Cl)cc23)CC1.Cl [Example 25, 1-[3-(5-chlorobenzo[b]furan-3-yl)propyl]-4-(3-methoxy-2-pyridinyl)piperazine hydrochloride]",*
6,"COc1cncnc1N1CCN(CCCc2coc3ccc(Cl)cc23)C(C)C1.Cl (stereo not shown) [Example 27, 1-[3-(5-chlorobenzo[b]furan-3-yl)propyl]-4-(5-methoxy-4-pyrimidinyl)-2-methylpiperazine hydrochloride]",*
7,"COc1cncnc1N1CCN(CCCc2coc3ccccc23)CC1C.Cl (stereo not shown) [Example 28, 1-[3-(benzo[b]furan-3-yl)propyl]-4-(5-methoxy-4-pyrimidinyl)-3-methylpiperazine hydrochloride]",*
8,"COc1cccnc1N1CCN(CCCc2coc3ccc(C)cc23)CC1.Cl [Example 29, 1-[3-(5-methylbenzo[b]furan-3-yl)propyl]-4-(3-methoxy-2-pyridinyl)piperazine hydrochloride]",*
9,"COc1cncnc1N1CCN(CCCc2coc3ccc(C)cc23)C(C)C1.Cl (stereo not shown) [Example 30, 1-[3-(5-methylbenzo[b]furan-3-yl)propyl]-4-(5-methoxy-4-pyrimidinyl)-2-methylpiperazine hydrochloride]",*
10,"COc1cccnc1N1CCN(CCCc2coc3ccccc23)CC1.Cl [Example 31, 1-[3-(benzo[b]furan-3-yl)propyl]-4-(3-methoxy-2-pyridinyl)piperazine hydrochloride]",*
11,"COc1cncnc1N1CCN(CCCc2coc3ccccc23)C(C)C1 (stereo not shown) [Example 32, 1-[3-(benzo[b]furan-3-yl)propyl]-4-(5-methoxy-4-pyrimidinyl-2-methylpiperazine hydrochloride]",*
12,"COc1cccnc1N1CCN(CCc2coc3ccccc23)CC1.Cl [Example 33, 1-[2-(benzo[b]furan-3-yl)ethyl]-4-(3-methoxy-2-pyridinyl)piperazine hydrochloride]",*
13,"COc1cccnc1N1CCN(CCCc2csc3ccccc23)C(C)C1.Cl (stereo not shown) [Example 41, 1-[3-(benzo[b]thien-3-yl)propyl]-4-(3-methoxy-2-pyridinyl)-2-methylpiperazine hydrochloride]",*
14,"COc1cncnc1N1CCN(CCCc2csc3ccccc23)C(C)C1.Cl (stereo not shown) [Example 50, 1-[3-(benzo[b]thien-3-yl)propyl]-4-(5-methoxy-4-pyrimidinyl)-2-methylpiperazine hydrochloride]",*
15,"COc1cncnc1N1CCN(CCCc2csc3ccccc23)CC1C.Cl (stereo not shown) [Example 51, 1-[3-(benzo[b]thien-3-yl)propyl]-4-(5-methoxy-4-pyrimidinyl)-3-methylpiperazine hydrochloride]",*
16,"COc1cncnc1N1CCN(CCCc2csc3ccc(F)cc23)CC1.Cl [Example 52, 1-[3-(5-fluorobenzo[b]thien-3-yl)propyl]-4-(5-methoxy-4-pyrimidinyl)piperazine hydrochloride]",*
17,"COc1cncnc1N1CCN(CCCc2csc3ccc(F)cc23)CC1C.Cl (stereo not shown) [Example 55, 1-[3-(5-fluorobenzo[b]thien-3-yl)propyl]-4-(5-methoxy-4-pyrimidinyl)-3-methylpiperazine hydrochloride]",*
18,"COc1cccnc1N1CCN(CCCc2csc3ccccc23)CC1.O=C(O)/C=C/C(=O)O [Example 56, 1-[3-(benzo[b]thien-3-yl)propyl]-4-(3-methoxy-2-pyridinyl)piperazine fumarate]",*
19,"COc1cccnc1N1CCN(CCc2csc3ccccc23)CC1.Cl [Example 57, 1-[2-(benzo[b]thien-3-yl)ethyl]-4-(3-methoxy-2-pyridinyl)piperazine hydrochloride]",*
20,"COc1cccnc1N1CCN(CCc2csc3ccccc23)C(C)C1.Cl (stereo not shown) [Example 58, 1-[2-(benzo[b]thien-3-yl)ethyl]-4-(3-methoxy-2-pyridinyl)-2-methylpiperazine hydrochloride]",*
21,"COc1cncnc1N1CCN(CCCc2csc3ccccc23)CC1.Cl [Example 59, 1-[3-(benzo[b]thien-3-yl)propyl]-4-(5-methoxy-4-pyrimidinyl)piperazine hydrochloride]",*
22,"COc1cc(Cl)cnc1N1CCN(CCCc2csc3ccccc23)C(C)C1.Cl (stereo not shown) [Example 60, 1-[3-(benzo[b]thien-3-yl)propyl]-4-(5-chloro-3-methoxy-2-pyridinyl)-2-methylpiperazine hydrochloride]",*
23,"COc1cncnc1N1CCN(CCCc2csc3ccc(F)cc23)C(C)C1.Cl (stereo not shown) [Example 63, 1-[3-(5-fluorobenzo[b]thien-3-yl)propyl]-4-(5-methoxy-4-pyrimidinyl)-2-methylpiperazine hydrochloride]",*
24,"COc1cncnc1N1CCN(CCc2csc3ccccc23)CC1C.Cl (stereo not shown) [Example 64, 1-[2-(benzo[b]thien-3-yl)ethyl]-4-(5-methoxy-4-pyrimidinyl)-3-methylpiperazine hydrochloride]",*
25,"COc1cncnc1N1CCN(CCCc2csc3ccc(C#N)cc23)CC1.Cl [Example 65, 1-[3-(5-cyanobenzo[b]thien-3-yl)propyl]-4-(5-methoxy-4-pyrimidinyl)piperazine hydrochloride]",*
